Test results published in patent publication US5710174A, “Factor XIIIA inhibitor” (Zymo Genetics, Inc., priority 1995, dated 1998).
Read-outs that look alike come from different tables or passages of the source.

Columns and labels:
Type in all cases: biochemical
[1] = target: T1, tissue transglutaminase (tTG) (Cavia cutleri, UniProt P08587); assay: tTG screening assay
T1 construct: purchased Sigma
T1 sequence (P08587 1-690): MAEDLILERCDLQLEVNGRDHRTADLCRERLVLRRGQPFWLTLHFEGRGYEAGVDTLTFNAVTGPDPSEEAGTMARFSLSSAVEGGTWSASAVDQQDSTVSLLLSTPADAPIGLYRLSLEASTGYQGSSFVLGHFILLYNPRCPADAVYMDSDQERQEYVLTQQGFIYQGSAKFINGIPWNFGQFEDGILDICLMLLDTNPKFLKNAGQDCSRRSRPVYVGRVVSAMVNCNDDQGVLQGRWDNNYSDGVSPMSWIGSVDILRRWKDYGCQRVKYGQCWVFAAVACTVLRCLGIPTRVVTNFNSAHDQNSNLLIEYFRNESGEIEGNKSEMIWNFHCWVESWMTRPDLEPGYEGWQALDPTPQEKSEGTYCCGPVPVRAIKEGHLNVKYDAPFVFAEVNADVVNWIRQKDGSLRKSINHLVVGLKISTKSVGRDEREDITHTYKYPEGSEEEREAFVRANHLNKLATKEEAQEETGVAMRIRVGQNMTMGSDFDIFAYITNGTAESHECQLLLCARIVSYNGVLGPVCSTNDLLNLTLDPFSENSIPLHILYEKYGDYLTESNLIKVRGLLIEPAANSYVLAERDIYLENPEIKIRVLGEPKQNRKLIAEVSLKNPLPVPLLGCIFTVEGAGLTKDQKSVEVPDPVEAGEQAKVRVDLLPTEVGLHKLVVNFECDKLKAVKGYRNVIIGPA
Excerpt: Because FXIII is a member of the tissue transglutaminase (tTG) family, all potential FXIIIa inhibitors identified in the primary FXIIIa screening assay were further screened for tTG (non-FXIII-specific) inhibitory activity. The tTG screening assay was identical to the primary FXIIIa screening assay, except that tTG (Sigma) was used instead of FXIIIa and no thrombin or PPACK was used.
The determination of IC50 values was done the same as in the primary FXIIIa screening assay, except that purified compounds were used at varying concentrations (instead of crude culture extracts). The IC50 values allow one to make comparisons of one compound to another.

[2] = target: T2, FXIIIa (Homo sapiens, UniProt P00488); assay: Primary FXIIIa screening assay (cross-linking of biotinylated fibrinogen and immobilized fibronectin)
T2 sequence (P00488 39-732 limits assumed): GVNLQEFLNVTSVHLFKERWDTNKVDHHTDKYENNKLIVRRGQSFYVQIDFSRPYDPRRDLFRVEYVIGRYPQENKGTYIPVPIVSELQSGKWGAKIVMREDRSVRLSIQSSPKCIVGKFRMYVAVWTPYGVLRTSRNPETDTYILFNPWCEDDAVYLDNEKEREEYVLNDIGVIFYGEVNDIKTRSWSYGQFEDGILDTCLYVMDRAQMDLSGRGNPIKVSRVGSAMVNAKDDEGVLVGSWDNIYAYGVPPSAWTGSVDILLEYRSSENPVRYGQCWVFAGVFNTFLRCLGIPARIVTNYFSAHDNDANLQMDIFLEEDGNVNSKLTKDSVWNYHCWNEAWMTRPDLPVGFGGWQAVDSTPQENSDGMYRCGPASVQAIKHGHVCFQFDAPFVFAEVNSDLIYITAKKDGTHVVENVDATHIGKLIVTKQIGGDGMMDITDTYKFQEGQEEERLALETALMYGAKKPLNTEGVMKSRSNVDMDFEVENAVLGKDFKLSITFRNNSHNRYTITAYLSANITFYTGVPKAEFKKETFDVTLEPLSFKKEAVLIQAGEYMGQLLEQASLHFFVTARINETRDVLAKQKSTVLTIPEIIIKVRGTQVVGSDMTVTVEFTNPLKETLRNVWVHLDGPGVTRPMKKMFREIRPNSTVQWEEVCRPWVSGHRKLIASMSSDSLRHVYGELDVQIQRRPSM
Description: The primary FXIIIa screening assay used a 96-well high throughput assay format. This assay assesses test sample inhibition of FXIIIa catalyzed cross-linking of biotinylated fibrinogen and immobilized fibronectin.
Test samples (possibly containing FXIIIa inhibitors) were added to 96-well plates coated with fibronectin, followed by the addition of FXIIIa, as described in the primary FXIIIa screening assay, below. Biotinylated fibrinogen was added to the wells, and streptavidin-alkaline phosphatase was used to detect biotinylated fibrinogen that had been cross-linked to fibronectin.
Purified fibronectin was diluted to 1 μg/ml in 0.1M Na2 CO3, pH 9.7, and added to control and test assay wells of 96-well plates at 100 μl/well. All wells were incubated overnight at 4° C.
After incubation, the plate wells were washed twice with 200 μl/well of wash buffer per wash to remove all fibronectin not bound to the wells. The wash buffer contained 0.135M NaCl, 2.7 mM KCl, 25 mM Tris at about pH 7.4, and 0.1% Tween 20® (Sigma Chemical Co., St. Louis, Mo.; polyoxyethylenesorbitan monolaurate). The plate wells were then blocked with 200 μl/well blocking buffer and incubated for 1-2 h at 37° C. The blocking buffer contained 0.135M NaCl, 2.7 mM KCl, 25 mM Tris at about pH 7.4, 0.1% Tween 20®, and 0.5% BSA (bovine serum albumin, Sigma fraction V; Sigma). After incubation, the plates wells were again washed with 200 μl/well of wash buffer to remove excess blocking buffer.
Briefly, fibrinogen was dialyzed against 0.1M NaHCO3, pH 8.5 (coupling buffer) at a concentration of 1 mg/ml. BNHS was dissolved in dimethylformamide at a concentration of 1.7 mg/ml, and added to fibrinogen in coupling buffer at a ratio of 30 μl BNHS to 1 ml fibrinogen. The mixture was incubated with rocking for 4 h at room temperature, dialyzed against PBS, and stored in aliquots at -80° C.
Biotinylated fibrinogen (40 μl of 20 μg/ml solution) was added to each plate well. Except in control wells (which received 10 μl of 10% DMSO alone), 10 μl of each of the 11,198 crude extracts in 10% DMSO were added to duplicate wells after the addition of biotinylated fibrinogen, resulting in a 1% final assay concentration of DMSO.
FXIIIa (recombinant human FXIIIa2 (ZymoGenetics), as described in European Patent No. 0 268 772, granted Apr. 26, 1995, and incorporated herein by reference) was diluted to 100 μg/ml in a solution of 50 mM Tris, 5 mM CaCl2 at pH 7.4 containing 1 unit/ml thrombin (bovine; Enzyme Research Labs) and incubated for 20 min at 37° C. FXIIIa then was diluted to 1 μg/ml in a cross-linking buffer consisting of the blocking buffer described above plus 20 mM CaCl2 and 75 ng/ml D-phenylalanyl-L-prolyl-L-arginine chloromethyl ketone (PPACK; Calbiochem, La Jolla, Calif.). Fifty microliters of FXIIIa in cross-linking buffer was added to each test and control well. All wells then were incubated for about 10 min at 37° C.
After incubation, the wells were washed twice with 200 μl/well of wash buffer to remove all biotinylated fibrinogen that was not cross-linked to fibronectin.

[3] = target: T3, papain (Carica papaya, UniProt P00784); assay: Papain inhibition assay; conditions: for Papain inhibition (result in words, IC50 table): 100 μM to 10 nM, 30 min at 37° C.
T3 construct: purchased Boehringer Mannheim
T3 sequence (P00784 134-345): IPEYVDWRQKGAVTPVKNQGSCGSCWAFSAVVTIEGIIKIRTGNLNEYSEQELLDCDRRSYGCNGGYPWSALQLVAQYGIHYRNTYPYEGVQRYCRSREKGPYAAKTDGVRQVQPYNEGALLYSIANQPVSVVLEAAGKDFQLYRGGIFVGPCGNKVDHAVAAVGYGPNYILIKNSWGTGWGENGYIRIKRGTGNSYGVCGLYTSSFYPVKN
Description: For the papain inhibition assay, a buffer containing 0.1M NaPO4 and 2.5 mM EDTA at about pH 7.0 was used. An Azocoll™ solution was prepared by adding 5 mg Azocoll™ (Calbiochem; an insoluble, powdered cowhide to which a bright red dye is attached (azo-dye-bound collagen)) to the buffer while stirring. The Azocoll was prewarmed to about 37° C. 10 μl of 0.1M L-cysteine, 10 μl of 50 μg/ml papain (Boehringer Mannheim), 0.5 ml of Azocoll solution, and 50 μl of one of a series of concentrations of ZG-1400a, iodoacetamide, iodoacetic acid, cerulenin, or 50 μl of the DMSO or ethanol negative controls were added to duplicate 13×75 mm glass tubes. The ZG-1400a, iodoacetamide, and iodoacetic acid were individually prepared in 10% DMSO and tested using half-log dilutions, starting at a final assay concentration of 100 μM and diluting to 10 nM. Cerulenin was prepared in 10% ethanol and tested using half-log dilutions, starting at a final assay concentration of 100 μM and diluting to 10 nM. A negative (no inhibition) control for ZG-1400a, iodoacetamide and iodoacetic acid was 50 μl of 10% DMSO to give a final assay concentration of 1% DMSO in each control tube. A negative control for cerulenin was 50 μl of 10% ethanol to give a final assay concentration of 1% ethanol in each control tube. The test and control tubes then were incubated for 30 min at 37° C. in an agitated water bath.
After incubation, all of the tubes were centrifuged at 2000 RPM for 5 min. The supernatant was removed and its absorbance was read at 520 nm on a Beckman DU640 spectrophotometer to determine the amount of papain inhibition.

[4] = purified compound, read-out: IC50 tTG Screen
[5] = purified compound, read-out: IC50 FXIIIa Primary Screen

SMILES	IC50 [1, 4] [µM]	IC50 [2, 5] [µM]	Papain inhibition (result in words, IC50 table) [3]	Papain inhibition (result in words, IC50 table) ([3]; listed as cerulenin)	IC50 [1] [µM]	IC50 [2] [µM]	IC50 [3] [µM]	inhibition of tTG ([1]; 0.01X concentration)	inhibition of tTG ([1]; 0.1X concentration)	inhibition of FXIIIa ([2]; 0.01X concentration)	Papain inhibition (result in words, IC50 table) ([3]; listed as ZG-1400a)	Papain inhibition (result in words, IC50 table) ([3]; listed as ZG-1440)
CC=CCC=CCCC(=O)C1OC1C(N)=O (stereo not drawn) [Cerulenin, 2,3-epoxy-4-oxo-7,10-dodecadienamide]	25	29	No inhibition	did not inhibit papain activity								
NC(=O)CI [Iodoacetamide, iodoacetamide]			did cause inhibition		10	320	0.01					
C[C@@H]1CCC/C=C\C(=O)Cc2cc(O)cc(O)c2C(=O)O1 [ZG-1400, R(-) enantiomer of cis-resorcylide]	3.1	5.7						about 95%	about 70%	about 65%	did not inhibit papain activity	No inhibition
